Experiments:
Type in all cases: cell-based, human
[1] = tested on: rBM cells (MM BMC); CD138+/CD56+ population; test: Apoptosis within rBM by flow cytometry measuring AnnexinV reactivity
Protocol: (§1) For preclinical studies, the rBM was grown for 14 days to allow for stratification of the culture and expansion of the malignant cells and the stromal layer. A single treatment of either melphalan or bortezomib was administered in a fresh aliquot of Growth Medium overlaid on top of the 3-D culture. After 7 days of treatment, fresh medium was added and cells were allowed to recover for an additional period of 7 days, after which cells were isolated using the Cell Recovery Solution and the effects of treatment were analyzed, and for CFU activity of drug resistant LRC.
For flow cytometry, cells were isolated from 3-D cultures with Cell Recovery Solution, stained with various FITC tagged CD antigens or Annexin V-PE and analyzed by flow cytometry to measure the extent of proliferation and apoptosis using a FACSort flow cytometer (BD, Oakville, ON). Data was analyzed with CellQuest Pro software.
FIGS. 4a-d illustrate a comparative evaluation of two MM therapeutics in a 3-D BM cell culture assembly in accordance with various embodiments. […]
FIG. 4b illustrates apoptosis within rBM as assessed by flow cytometry measuring AnnexinV reactivity post treatment with melphalan (left panel) or bortezomib (middle panel). MM specific cell killing by bortezomib was monitored in the CD138+/CD56+ population by AnnexinV reactivity (right panel).

[2] = tested on: stromal compartment of rBM; details: brightfield microscopy; TRAP, Oil Red, ALP staining at rEnd; FIG. 4c, 4d
Protocol: as §1
For microscopy, confocal z-slices were imaged on a Carl Zeiss confocal LSM 510 microscope equipped with appropriate filters and the 3D reconstruction was done using Zeiss 510 image analysis software. Quantification of LRC positioning was performed with Imaris 3.2.2 software, Bitplane AG (Zurich, Switzerland). Stromal cells were stained with TRAP, Oil Red, Alkaline phosphatase, or Alizarin Red according to the manufacturer's instructions and imaged on Zeiss Axioskop digital microscope. For fibronectin, phalloidin and N-cadherin staining, cells were fixed with 1% neutral buffered formalin for 10 min at RT, permeabilized with 0.5% Triton X-100 and non-specific binding was blocked with 1% BSA for 1 hr at RT. […]

LRCs (putative MM-CSC) = test: Persistence of label retaining cells (LRC) in melphalan treated 3-D cultures of mobilized blood cells, CFSE flow cytometry; details: mobilized blood mononuclear cells, 14 days in 3-D, then treated
Protocol: In the embodiments illustrated in FIGS. 1-7, 3-D cell culture and other techniques were performed. BMC were isolated from BM aspirates by Ficoll-Paque gradient centrifugation per manufacturer's instructions. Surface coating (rEnd) was created by incubating tissue culture plates with fibronectin/collagen I (1:1) in PBS at a final concentration of 5 μg/1 cm^2 of each protein. Plates were incubated for <30 min at room temperature (RT) and the remaining fluid was removed and was replaced with the rBM layer consisting of the BMC cells in an ECM mixture of Matrigel™/fibronectin (2:1 v/v). For analysis of proliferation and LRCs, cells were labeled with 0.25 μM CFSE for 15 min at 40° C. […]
For CFU assays, CFSE labeled cells were isolated from the 3-D culture and the CFSE+ cells were sorted on an EPICS ALTRA cell sorter, by gating on the live cells based on the forward and side scatter and on the CFSE+ population based on fluorescence intensity in the FL1 channel (see FIG. 6a, below). […] The MethoCult™ cultures were incubated for 14 days and the resulting colonies were counted. […]
FIG. 6a illustrates the flow cytometry profile of the LRCs. The gate for sorting was set to isolate CFSE-high cells and the percentage of LRCs was calculated as the percent of CFSE-high cells in the live cell fraction of the 3-D culture.

[3] = tested on: clonotypic MM cells in rBM (MM BMC); test: Reduction of clonal cells in 3-D rBM culture, RQ-PCR with patient specific primers; details: rBM grown 14 days, single treatment 7 days, 7 days recovery
Protocol: as §1
For real-time quantitative PCR (RQ-PCR), total genomic DNA was isolated with TRIzol™ reagent (Invitrogen, Burlington, ON) per manufacturer's instructions. […] Controls included cloned VDJ sequences for each patient used to generate a standard curve for the specific clonotypic sequence and comparison with a standard curve for a housekeeping gene, β2 microglobulin (normalized to the two copies of B2M templates/cell), to quantify the number of templates in unknown samples before and after 3-D culture. […]
FIG. 4a illustrates the reduction of the clonal cells as measured by RQ-PCR with patient specific primers (melphalan p=0.016, bortezomib p=0.39). […] Treatment of rBM with melphalan led to a 60% decrease in the number of clonotypic cells as measured by RQ-PCR.

SMILES	apoptosis in rBM (AnnexinV reactivity) ([1]; overall rBM, post treatment, FIG. 4b, 4c)	effect on stromal compartment of rBM [2]	depletion in 3-D of other hematopoietic cells (LRCs (putative MM-CSC)) [%]	enrichment of LRCs in treated 3-D cultures (LRCs (putative MM-CSC); CFSE labeled, FIG. 6a) [%]	decrease in the number of clonotypic cells as measured by RQ-PCR ([3]; p=0.016) [%]	apoptosis in CD138+CD56+ PC population (AnnexinV reactivity) ([1]; CD138+/CD56+ population, FIG. 4b right panel)	reduction in clonotypic cells (in words) ([3]; FIG. 4a, p=0.39)
N[C@@H](Cc1ccc(N(CCCl)CCCl)cc1)C(=O)O [melphalan]	induced apoptosis of all cell types within the hematopoietic hierarchy	remained intact	≥ 50	50	60		
CC(C)C[C@H](NC(=O)[C@H](Cc1ccccc1)NC(=O)c1cnccn1)B(O)O [bortezomib]						the only cell population subject to bortezomib induced apoptosis	neither a significant reduction in clonotypic cells
